Source: ChEMBL document CHEMBL1155826, “Refinement of histamine H3 ligands pharmacophore model leads to a new class of potent and selective naphthalene inverse agonists” (Bioorg Med Chem Lett, 2008)

Legend:
[1] = target: T1, Histamine H3 receptor (Homo sapiens, UniProt Q9Y5N1); test: Displacement of [3H]RAMH from human histamine H3 receptor expressed in CHO cells at 3 uM; assay type: cell-based
[2] = target: T1, Histamine H3 receptor; test: Displacement of [3H]RAMH from human histamine H3 receptor expressed in CHO cells; assay type: cell-based
[3] = target: T1, Histamine H3 receptor; test: Inverse agonist activity at human histamine H3 receptor expressed in CHO cells by GTPgammaS assay; assay type: functional, cell-based
[4] = target: Histamine H1 receptor (Homo sapiens) (UniProt P35367); test: Inhibition of histamine H1 receptor at 3 uM
Chain of Histamine H1 receptor (Homo sapiens) (P35367 whole entry): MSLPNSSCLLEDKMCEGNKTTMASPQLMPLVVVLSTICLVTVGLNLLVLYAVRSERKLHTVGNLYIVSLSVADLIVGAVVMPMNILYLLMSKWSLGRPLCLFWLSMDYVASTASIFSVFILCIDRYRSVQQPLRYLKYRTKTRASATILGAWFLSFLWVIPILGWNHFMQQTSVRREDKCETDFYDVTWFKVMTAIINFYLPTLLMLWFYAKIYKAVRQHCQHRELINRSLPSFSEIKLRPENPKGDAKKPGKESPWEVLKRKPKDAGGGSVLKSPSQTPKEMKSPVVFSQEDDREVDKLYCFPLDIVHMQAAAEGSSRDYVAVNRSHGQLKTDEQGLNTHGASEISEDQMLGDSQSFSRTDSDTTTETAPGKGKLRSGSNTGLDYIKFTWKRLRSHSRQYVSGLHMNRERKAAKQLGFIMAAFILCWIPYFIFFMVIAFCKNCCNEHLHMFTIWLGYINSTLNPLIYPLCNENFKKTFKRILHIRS

[5] = target: Histamine H2 receptor (Homo sapiens) (UniProt P25021); test: Inhibition of histamine H2 receptor at 3 uM
Chain of Histamine H2 receptor (Homo sapiens) (P25021 whole entry): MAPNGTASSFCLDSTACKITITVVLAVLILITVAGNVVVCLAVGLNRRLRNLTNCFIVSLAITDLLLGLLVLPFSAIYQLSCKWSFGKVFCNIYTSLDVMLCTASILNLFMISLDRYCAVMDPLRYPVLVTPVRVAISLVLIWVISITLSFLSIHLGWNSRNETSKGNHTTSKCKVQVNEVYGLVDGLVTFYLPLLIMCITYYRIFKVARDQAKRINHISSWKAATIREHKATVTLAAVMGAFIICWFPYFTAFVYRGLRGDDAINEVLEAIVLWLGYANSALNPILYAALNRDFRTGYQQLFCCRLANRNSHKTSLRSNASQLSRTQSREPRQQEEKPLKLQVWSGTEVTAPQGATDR

[6] = target: Histamine H4 receptor (Homo sapiens) (UniProt Q9H3N8); test: Inhibition of histamine H4 receptor at 3 uM

T1 sequence (Q9Y5N1 whole entry): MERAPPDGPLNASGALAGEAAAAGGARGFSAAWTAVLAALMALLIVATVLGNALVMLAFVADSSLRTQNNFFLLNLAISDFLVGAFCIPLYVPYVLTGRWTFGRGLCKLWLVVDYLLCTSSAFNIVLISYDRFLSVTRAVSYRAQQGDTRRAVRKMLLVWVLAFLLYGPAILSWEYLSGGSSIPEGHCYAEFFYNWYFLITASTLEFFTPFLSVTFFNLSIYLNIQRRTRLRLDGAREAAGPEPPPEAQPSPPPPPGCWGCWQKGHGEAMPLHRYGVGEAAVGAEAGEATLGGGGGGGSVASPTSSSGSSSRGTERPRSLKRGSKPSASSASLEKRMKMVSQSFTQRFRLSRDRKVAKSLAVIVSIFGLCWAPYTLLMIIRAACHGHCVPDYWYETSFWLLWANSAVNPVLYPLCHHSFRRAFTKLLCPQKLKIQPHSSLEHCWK

| Compound | inhibition [1] | Ki [2] | also measured |
| --- | --- | --- | --- |
| O=C(c1ccc2cc(OCCCN3CCCCC3)ccc2c1)N1CCCC1 | – | 4 nM | – |
| c1ccc2c(Nc3ccc(OCCCN4CCCCC4)cc3)ccnc2c1 | – | 0.5 nM | – |
| C[C@H]1CC[C@H](C)N1CCCOc1ccc(-c2ccc(C(=O)N3CCOCC3)cc2)cc1 (single isomer, unassigned) [A-349,821] | – | 12 nM | – |
| CC(C)N1CCC(Oc2ccc3c(C(=O)NC4CCCCC4)cccc3c2)CC1 | 52% | – | – |
| O=C(c1cccc2cc(OCCCN3CCCCC3)ccc12)N1CCCC1 | 58% | – | – |

More lines, main results first:

| inhibition [1] | Ki [2] | Compound | also measured |
| --- | --- | --- | --- |
| 45% | – | CC(C)N1CCC(Nc2ccc3cc(C(=O)N4CCCC4)ccc3c2)CC1 | – |
| – | 87 nM | CC(C)N1CCC(Oc2ccc3cc(C(=O)NC4CCCCC4)ccc3c2)CC1 | EC50 [3]: 21 nM; inhibition [4]: < 25%; inhibition [5]: < 25%; inhibition [6]: < 25% |
| 57% | – | CC(C)N1CCC(Nc2ccc3cc(C(=O)NC4CCCCC4)ccc3c2)CC1 | – |
| 53% | – | CC(C)N1CCC(Oc2ccc3c(C(=O)N4CCCC4)cccc3c2)CC1 | – |
| 61% | – | CC(C)N1CCC(Nc2ccc3cc(C(=O)N4CCOCC4)ccc3c2)CC1 | – |
| – | 57 nM | CC(C)N1CCC(Oc2ccc3cc(C(=O)N4CCCC4)ccc3c2)CC1 | – |
